pIC50: −log10 of the molar value.
Legend:
Coagulation factor X = Coagulation factor X (Homo sapiens, UniProt P00742); assay: Compound was evaluated for inhibition of amidolytic activity for chromogenic substrate Coagulation factor X
Trypsin II = target: T1, Trypsin II (Bos taurus, UniProt Q29463); assay: Compound was evaluated for inhibition of amidolytic activity for chromogenic substrate trypsin
T1 sequence (Q29463 whole entry): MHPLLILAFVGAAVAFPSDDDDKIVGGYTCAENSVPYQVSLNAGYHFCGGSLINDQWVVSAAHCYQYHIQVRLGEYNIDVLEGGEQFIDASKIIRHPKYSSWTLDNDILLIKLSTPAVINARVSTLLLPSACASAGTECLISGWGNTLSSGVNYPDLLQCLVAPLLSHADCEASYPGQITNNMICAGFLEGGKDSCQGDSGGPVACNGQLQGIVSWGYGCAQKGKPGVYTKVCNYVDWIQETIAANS

Prothrombin = Prothrombin (Homo sapiens, UniProt P00734); assay: Compound was evaluated for inhibition of amidolytic activity for chromogenic substrate thrombin […].

Sequence of Coagulation factor X (P00742 41-179 limits assumed): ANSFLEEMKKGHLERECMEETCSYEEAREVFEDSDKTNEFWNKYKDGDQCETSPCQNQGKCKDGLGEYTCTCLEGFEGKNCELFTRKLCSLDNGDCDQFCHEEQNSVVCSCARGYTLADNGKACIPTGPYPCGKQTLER
Sequence of Coagulation factor X (P00742 235-488 limits assumed): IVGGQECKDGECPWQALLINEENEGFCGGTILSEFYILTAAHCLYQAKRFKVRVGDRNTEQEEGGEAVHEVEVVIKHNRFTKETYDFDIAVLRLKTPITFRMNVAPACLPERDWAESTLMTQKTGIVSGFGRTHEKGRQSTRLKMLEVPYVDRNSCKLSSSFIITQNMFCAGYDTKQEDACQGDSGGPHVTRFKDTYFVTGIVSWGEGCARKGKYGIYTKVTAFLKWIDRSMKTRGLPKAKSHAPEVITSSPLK

Row | Structure (SMILES) | pIC50 (Coagulation factor X) | pIC50 (Trypsin II) | pIC50 (Prothrombin)
1 | CCCC(CCC)C(=O)N[C@@H](CC(=O)OC)C(=O)N1CCC[C@H]1C(=O)N[C@H](C=O)CC1CCCN(C(=N)N)C1 (stereo in doubt; 4a) | < 5.60 | 6.95 | 
2 | [H]/N=C(\N)N1CCC[C@@H](C[C@@H](C=O)NC(=O)CN2CCC[C@H](NS(=O)(=O)Cc3ccccc3)C2=O)C1 | < 4.60 | 4.16 | 9.17
3 | N=C(N)N1CCCC(C[C@@H](C=O)NC(=O)CN2CCCC[C@H](NS(=O)(=O)Cc3ccccc3)C2=O)C1 (stereo in doubt; 6a) | < 5.60 | 4.82 | 
4 | CCCC(CCC)C(=O)N[C@@H](CC(=O)OC)C(=O)N1CCC[C@H]1C(=O)N[C@H](C=O)CCCNC(=N)N | 6.52 | 8.92 | 
5 | N=C(N)NCCC[C@@H](C=O)NC(=O)CN1CCC[C@H](NS(=O)(=O)Cc2ccccc2)C1=O | < 5.60 | 5.81 | 7.91
6 | N=C(N)NCCC[C@@H](C=O)NC(=O)CN1CCCC[C@H](NS(=O)(=O)Cc2ccccc2)C1=O | 7.69 | 6.48 | 9.15
7 | N=C(N)N1CCC[C@H](C[C@@H](C=O)NC(=O)CN2CCC[C@H](NS(=O)(=O)Cc3ccccc3)C2=O)C1 | < 4.60 | 4.22 | 7.54
8 | N=C(N)N1CCCC(C[C@@H](C=O)NC(=O)CN2CCCC[C@H](NS(=O)(=O)Cc3ccccc3)C2=O)C1 (stereo in doubt; 6b) | < 4.60 | 4.34 | 
9 | CCCC(CCC)C(=O)N[C@@H](CC(=O)OC)C(=O)N1CCC[C@H]1C(=O)N[C@H](C=O)CC1CCCN(C(=N)N)C1 (stereo in doubt; 4b) | < 5.60 | 7.16 | 

From ChEMBL document CHEMBL1129391, “Potent and selective thrombin inhibitors incorporating the constrained arginine mimic l-3-piperidyl(N-guanidino)alanine at P1” (J Med Chem, 1996)
